Values of other authors, collected in article PMC13363528, “Structure–Activity Relationships of Pyrrolyl-Containing Diketo Acid and Non-Diketo Acid Derivatives as Inhibitors of SARS-CoV-2 nsp13-Associated Activities” (Molecules, 2026).

Target: SARS-CoV-2 nsp13 (Severe acute respiratory syndrome coronavirus 2, UniProt P0DTD1)
Conditions: without BSA/TCEP; read-out: IC50 Unwinding

For `O=c1c(O)c(-c2ccc(O)cc2)oc2cc(O)cc(O)c12` [Kaempferol], the IC50 is given as 760 ± 160 nM.
